{"source": "patent US20040132639A1", "about": "“Combined use of enzyme inhibitors and pharmaceutical preparations thereof for the treatment and a prophylaxis of arteriosclerosis, for the treatment and prevention of allergic reactions of type I according to the gell and coombs classification and for the treatment and prevention of dermatological …” (priority 2001, published 2004)", "type_in_all_cases": "cell-based", "key": {"[1]": {"system": "PHA-activated human mononuclear cells (MNC)", "assay": "Proliferation of PHA-activated human MNC (WST-1 Cell-Proliferation Assay)", "settings": "72 h", "protocol": "FIG. 7: The MNC were incubated for the time of 72 hours without (control), with mitogenic lectin phytohemagglutinine (PHA) or with PHA plus the inhibitors indicated. Subsequently, there was carried out a determination of the number of metabolically active cells by using the commercially available WST-1 Cell-Proliferation Assay (Takara Inc.) in accordance with the proposals of the manufacturer.\n(§1) FIG. 10: The mononuclear cells (MNC) were incubated for a time of 72 hours in the presence of the above-indicated inhibitors singly or in combination. Subsequently, there was carried out a determination of the number of metabolically active cells by using the commercially available WST-1 Cell-Proliferation Assay (Takara Inc.) in accordance with the proposals of the manufacturer."}, "[2]": {"system": "human peripheric T lymphocytes", "assay": "DNA synthesis of human T lymphocytes (3[H]-thymidine incorporation)", "settings": "72 h incubation", "protocol": "(§2) The T cells were incubated for 72 h in the presence of said inhibitors, and the DNA synthesis was determined subsequently by a measurement of the ^3[H]-thymidine incorporation, as described by Reinhold et al. (Reinhold D. et al.: Inhibitors of dipeptidyl peptidase IV induce secretion of transforming growth factor β1 in PWM-stimulated PBMNC and T cells; Immunology 1997, 91: 354-360).\n(§3) FIG. 1: Synergistic and dose-dependent effect of inhibitors of DP IV (I49) and of aminopeptidase N (actinonine) on the DNA synthesis of human T lymphocytes. Human peripheric T cells were incubated for three days with the above-indicated concentrations of the inhibitors. Subsequently, ^3[H]-methyl thymidine was added to the culture medium, and after further 6 hours, the ^3[H]-thymidine amount incorporated into the DNA was measured.\nas §3, with “3:” for “1:”, “prolyl oligopeptidase (Boc-Ala-Thia)” for “aminopeptidase N (actinonine)”, “human peripheric” for “human”, “Human” for “Human peripheric”\nFIG. 5: Synergistic and dose-dependent effect of inhibitors of DP IV (I49) and of angiotensin-converting enzyme (captopril) on the DNA synthesis of human peripheric T lymphocytes.\nHuman T cells were incubated for three days with the above-indicated concentrations of the inhibitors. Subsequently, ^3[H]-methyl thymidine was added to the culture medium, and after further 6 hours, the ^3[H]-thymidine amount incorporated into the DNA was measured."}, "[3]": {"system": "human HaCaT keratinocytes", "assay": "DNA synthesis of human HaCaT keratinocytes (3[H]-thymidine incorporation)", "settings": "simultaneous administration of DP IV inhibitor I49 and APN inhibitor actinonine; 48 h; Example 13, FIG. 14", "protocol": "HaCaT cells were incubated for 48 hours in presence of the above-mentioned inhibitors, and the DNA synthesis was subsequently determined by a measurement of ^3[H]-thymidine-incorporation, as described by Reinhold et al. (Reinhold D et al.: Inhibitors of dipeptidyl peptidase IV induce secretion of transforming growth factor β1 in PWM-stimulated PBMNC and T cells. Immunology 1997; 91; 354-360).\nFIG. 14: Synergistic and dose-dependant effect of inhibitors of DP IV (I49) and of aminopeptidase N (actinonine) on the DNA synthesis of human HaCaT keratinocytes. The cells were incubated for 48 hours with the above-indicated concentrations of inhibitors. Subsequently, ^3[H]-methyl thymidine was added to the culture medium, and after further 6 hours, the amount of ^3[H]-thymidine incorporated into the DNA was measured."}, "KARPAS-299 cells": {"system": "KARPAS-299 cells", "assay": "Proliferation of human T cell line KARPAS-299 (WST-1 Cell-Proliferation Assay)", "settings": "single and simultaneous administration of I49 and APN inhibitors actinonine and probestine; 72 h; Example 8, FIG. 8", "protocol": "as §1, with “8:” for “10:”, “KARPAS-299-cells” for “mononuclear cells (MNC)”, “time period” for “time”, “without (control) and with” for “in the presence of”"}, "[4]": {"system": "activated human peripheric T cells", "assay": "Proliferation of activated human peripheric T cells (WST-1 Cell-Proliferation Assay)", "settings": "single and simultaneous administration of I49 and APN inhibitors actinonine and probestine; activation by phytohemagglutinine and phorbol-12-myristate-13-acetate; 72 h; Example 9, FIG. 9", "protocol": "as §1, with “9:” for “10:”, “T” for “mononuclear”, “with the exception of the untreated control, were activated by an addition of phytohemagglutinine and phorbol-12-myristate-13-acetate to the culture medium and” for “(MNC)”, “above” for “above-indicated”"}, "[5]": {"system": "human peripheric mononuclear cells (MNC)", "assay": "DNA synthesis of human peripheric mononuclear cells (3[H]-thymidine incorporation)", "settings": "72 h incubation", "protocol": "as §2, with “The MNC” for “The T cells”\nas §3, with “2:” for “1:”, “APN” for “aminopeptidase N”, “mononuclear cells (MNC).” for “T lymphocytes.”, “MNC” for “peripheric T cells”\nas §3, with “4: Enhanced” for “1: Synergistic”, “prolyl oligopeptidase (Boc-Ala-Thia)” for “aminopeptidase N (actinonine)”, “mononuclear cells (MNC).” for “T lymphocytes.”, “MNC” for “peripheric T cells”\nas §3, with “6:” for “1:”, “angiotensin-converting enzyme (captopril)” for “aminopeptidase N (actinonine)”, “mononuclear cells (MNC).” for “T lymphocytes.”, “MNC” for “peripheric T cells”"}, "[6]": {"system": "pokeweed-mitogene stimulated human MNC of the peripheral blood", "assay": "DNA synthesis of pokeweed-mitogene stimulated human MNC (3[H]-thymidine incorporation)", "settings": "simultaneous administration of DP IV inhibitor I49 and APN inhibitor bestatine; PWM 2 μg/ml; 72 h; Example 11, FIG. 11", "protocol": "The MNC were incubated for 72 hours in the presence of pokeweed-mitogene and of said inhibitors, and the DNA synthesis was determined subsequently by a measurement of the ^3[H]-thymidine-incorporation, is described by Reinhold et al. (Reinhold D et al.: Inhibitors of dipeptidyl peptidase IV induce secretion of transforming growth factor β1 in PWM-stimulated PBMNC and T cells. Immunology 1997; 91; 354-360).\nFIG. 11: Synergistic and dose-dependent effect of inhibitors of DP IV (I49) and of aminopeptidase N (bestatine) on the DNA synthesis of human PWM-stimulated MNC. Human peripheric MNC were incubated for three days with PWM (2 μg/ml) and the above-indicated concentration of inhibitors. Subsequently, ^3[H]-methyl thymidine was added to the culture medium, and the amount of ^3[H]-thymidine incorporated into the DNA was measured after further 6 hours."}, "[7]": {"system": "IL-4 production by pokeweed-mitogene stimulated human mononuclear cells (MNC)", "assay": "IL-4 production by pokeweed-mitogene stimulated human MNC (IL-4 ELISA)", "settings": "simultaneous administration of DP IV inhibitor I49 and APN inhibitor bestatine; PWM 2 μg/ml; 48 h; culture supernatants; Example 12, FIG. 12", "protocol": "The MNC were incubated for 48 hours in the presence of pokeweed-mitogene and of said inhibitors, and the concentration of IL-4 was subsequently determined in the respective culture supernatants by means of commercially available IL-4 analysis kids (ELISA) as described by Reinhold et al. (Reinhold D et al.: Inhibitors of dipeptidyl peptidase IV induce secretion of transforming growth factor β1 in PWM-stimulated PBMNC and T cells. Immunology 1997; 91; 354-360).\nFIG. 12: Synergistic and dose-dependent effect of inhibitors of DP IV (I49) and of aminopeptidase N (bestatine) on the IL-4-production by human, PWM-stimulated MNC. Human peripheric MNC were incubated for 48 hours with PWM (2 μg/ml) and with the above-indicated concentrations of the inhibitors. Subsequently, the concentration of IL-4 in the respective culture supernatants were measured by means of IL-4-ELISA."}, "[8]": {"settings": "single and simultaneous administration of I49 and actinonine, PHA, Example 7, FIG. 7"}, "[9]": {"settings": "simultaneous administration of DP IV inhibitor I49 and APN inhibitor actinonine, Example 1, FIG. 1"}, "[10]": {"settings": "simultaneous administration of DP IV inhibitor I49 and APN inhibitor actinonine, Example 2, FIG. 2"}, "[11]": {"settings": "single and simultaneous administration of I49 and X-Pro-aminopeptidase (APP) inhibitor apstatine, Example 10, FIG. 10"}, "[12]": {"settings": "simultaneous administration of DP IV inhibitor I49 and prolyl oligopeptidase inhibitor Boc-Ala thiazolidide, Example 3, FIG. 3"}, "[13]": {"settings": "simultaneous administration of DP IV inhibitor I49 and prolyl oligopeptidase inhibitor Boc-Ala thiazolidide, Example 4, FIG. 4"}, "[14]": {"settings": "simultaneous administration of DP IV inhibitor I49 and ACE inhibitor captopril, Example 5, FIG. 5"}, "[15]": {"settings": "simultaneous administration of DP IV inhibitor I49 and ACE inhibitor captopril, Example 6, FIG. 6"}}}
{"molecule": "CCCCC[C@H](CC(=O)NO)C(=O)N[C@H](C(=O)N1CCC[C@H]1CO)C(C)C", "note": "[Actinonine]", "values": [{"measurement": "inhibition of proliferation (number of metabolically active cells)", "setting": "[1]; [8]", "result": "Inhibition of the Proliferation"}, {"measurement": "inhibition of DNA synthesis", "setting": "[2]; [9]", "result": "inhibited, in a more than additive to superadditive manner"}, {"measurement": "inhibition of DNA synthesis", "setting": "[3]", "result": "inhibited, in a more than additive and, at lower concentrations, also in a superadditive manner"}, {"measurement": "inhibition of proliferation (number of metabolically active cells)", "setting": "KARPAS-299 cells", "result": "Inhibition of the Proliferation"}, {"measurement": "inhibition of proliferation (number of metabolically active cells)", "setting": "[4]", "result": "Inhibition of the Proliferation"}, {"measurement": "inhibition of DNA synthesis", "setting": "[5]; [10]", "result": "inhibited, in a more than additive to superadditive manner"}]}
{"molecule": "C[C@H](NC(=O)[C@@H]1CCCN1C(=O)[C@@H]1CCCN1C(=O)[C@@H](O)[C@H](N)Cc1ccccc1)C(N)=O", "note": "[Apstatine]", "values": [{"measurement": "inhibition of proliferation (number of metabolically active cells)", "setting": "[1]; [11]", "result": "Inhibition of the Proliferation"}]}
{"molecule": "CC(C)C[C@H](NC(=O)[C@@H](O)[C@H](N)Cc1ccccc1)C(=O)O", "note": "[Bestatine]", "values": [{"measurement": "inhibition of DNA synthesis", "setting": "[6]", "result": "inhibited, in a more than additive manner"}, {"measurement": "inhibition of IL-4 production", "setting": "[7]", "result": "inhibited, in a more than additive to superadditive manner"}]}
{"molecule": "CC(NC(=O)OC(C)(C)C)C(=O)N1CCSC1", "note": "(stereo not shown) [Boc-Ala thiazolidide]", "values": [{"measurement": "inhibition of DNA synthesis", "setting": "[2]; [12]", "result": "inhibited, in a more than additive to superadditive manner"}, {"measurement": "inhibition of DNA synthesis", "setting": "[5]; [13]", "result": "inhibited, in an increased manner"}]}
{"molecule": "C[C@H](CS)C(=O)N1CCC[C@H]1C(=O)O", "note": "[Captopril]", "values": [{"measurement": "inhibition of DNA synthesis", "setting": "[2]; [14]", "result": "inhibited, in a more than additive to superadditive manner"}, {"measurement": "inhibition of DNA synthesis", "setting": "[5]; [15]", "result": "inhibited, in a more than additive to superadditive manner"}]}
{"molecule": "N[C@@H](CCCCNC(=O)OCc1ccc([N+](=O)[O-])cc1)C(=O)N1CCSC1", "note": "[I49, Lys[Z(NO2)]-thiazolidide]", "values": [{"measurement": "inhibition of proliferation (number of metabolically active cells)", "setting": "[1]; [11]", "result": "Inhibition of the Proliferation"}, {"measurement": "inhibition of proliferation (number of metabolically active cells)", "setting": "[1]; [8]", "result": "Inhibition of the Proliferation"}, {"measurement": "inhibition of DNA synthesis", "setting": "[2]; [14]", "result": "inhibited, in a more than additive to superadditive manner"}, {"measurement": "inhibition of DNA synthesis", "setting": "[2]; [9]", "result": "inhibited, in a more than additive to superadditive manner"}, {"measurement": "inhibition of DNA synthesis", "setting": "[2]; [12]", "result": "inhibited, in a more than additive to superadditive manner"}, {"measurement": "inhibition of DNA synthesis", "setting": "[6]", "result": "inhibited, in a more than additive manner"}, {"measurement": "inhibition of DNA synthesis", "setting": "[3]", "result": "inhibited, in a more than additive and, at lower concentrations, also in a superadditive manner"}, {"measurement": "inhibition of proliferation (number of metabolically active cells)", "setting": "KARPAS-299 cells", "result": "Inhibition of the Proliferation"}, {"measurement": "inhibition of proliferation (number of metabolically active cells)", "setting": "[4]", "result": "Inhibition of the Proliferation"}, {"measurement": "inhibition of IL-4 production", "setting": "[7]", "result": "inhibited, in a more than additive to superadditive manner"}, {"measurement": "inhibition of DNA synthesis", "setting": "[5]; [15]", "result": "inhibited, in a more than additive to superadditive manner"}, {"measurement": "inhibition of DNA synthesis", "setting": "[5]; [10]", "result": "inhibited, in a more than additive to superadditive manner"}, {"measurement": "inhibition of DNA synthesis", "setting": "[5]; [13]", "result": "inhibited, in an increased manner"}]}
{"molecule": "Probestine", "values": [{"measurement": "inhibition of proliferation (number of metabolically active cells)", "setting": "KARPAS-299 cells", "result": "Inhibition of the Proliferation"}, {"measurement": "inhibition of proliferation (number of metabolically active cells)", "setting": "[4]", "result": "Inhibition of the Proliferation"}]}
